For test [1], the system named is Staphylococcus aureus. The experiment in a line: Antibacterial activity against methicillin-resistant Staphylococcus aureus by NCCLS M7-A4 method. Format: functional.
Test [2] relates to Mycolicibacterium smegmatis. Put plainly: Antibacterial activity against Mycobacterium smegmatis. In kind it is functional.

Structures are written as SMILES. Converted amounts (≈) assume the structure as drawn.

On to `C=CCCC#CC#CC#CCCCCCCCC(=O)O` [OROPHEIC ACID], for which the MIC in test [1] and in test [2] was 12.5 µg/mL (≈ 46.2 µM) each time.
Turning to `NNC(=O)c1ccncc1` [ISONIAZID], 0.8 µg/mL (≈ 5.83 µM) was the least that counted as inhibitory in test [2] (MIC).
In turn, `CN[C@H](CC(C)C)C(=O)N[C@H]1C(=O)N[C@@H](CC(N)=O)C(=O)N[C@H]2C(=O)N[C@H]3C(=O)N[C@H](C(=O)N[C@H](C(=O)O)c4cc(O)cc(O)c4-c4cc3ccc4O)[C@H](O)c3ccc(c(Cl)c3)Oc3cc2cc(c3O[C@@H]2O[C@H](CO)[C@@H](O)[C@H](O)[C@H]2O[C@H]2C[C@](C)(N)[C@H](O)[C@H](C)O2)Oc2ccc(cc2Cl)[C@H]1O` [VANCOMYCIN] came in with an MIC in test [1] of 0.8 µg/mL (≈ 0.552 µM).
For `C=CCC/C=C/C#CC#CCCCCCCCC(=O)O`, the MIC turned out to be 25 µg/mL (≈ 91.8 µM) in test [1] and 12.5 µg/mL (≈ 45.9 µM) in test [2].

These data come from ChEMBL document CHEMBL1156365, “Polyacetylene carboxylic acids from Mitrephora celebica” (2001).
